Source: patent US8044211B2 (Chroma Therapeutics Ltd., priority 2006, dated 2011)

Legend:
p38 MAP Kinase a = target: T1, p38 MAP Kinase a (Homo sapiens, UniProt Q16539); test: p38 MAP Kinase activity, radiometric filter-binding assay (Upstate); format: biochemical; conditions: IC50 range; ATP at or close to Km; read-out: Inhibitor activity versus p38 MAPKa
T1 construct: purchased Upstate (Dundee UK)
In short: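 Human p38 MAP kinase α (5-10 mU) with 0.33 mg/mL myelin basic protein, 25 mM Tris pH 7.5, 0.002 mM EGTA, 10 mM Mg acetate and [γ-33P]ATP at or near Km; 40 min at RT. Phosphoric acid stop, P30 filter binding and scintillation counting; IC50 from 9-step ⅓-log dilutions from 10 μM top concentration, duplicates.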

THP-1 TNFα release = test: LPS-stimulation of THP-1 cells, TNF-α by ELISA; format: cell-based; conditions: Homo sapiens, THP-1; IC50 range; LPS 1 μg/ml, 6 hrs; read-out: Inhibitor activity versus THP-1 TNFα release
In short: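 THP-1 cells (4×10^4/well) rested 16 h, preincubated 2 h with inhibitor, then stimulated with 1 μg/ml E. coli LPS for 6 h at 37 °C, 5% CO2. TNF-α quantified in cell-free supernatants by sandwich ELISA.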

[1] = test system: human whole blood TNFα release; test: LPS-stimulation of human whole blood, TNF-α by ELISA; format: cell-based; conditions: IC50 range, LPS 100 ng/ml, 6 hrs, read-out: Inhibitor activity versus human whole blood TNFα release
Procedure: Whole blood was taken by venous puncture using heparinised vacutainers (Becton Dickinson) and diluted in an equal volume of RPMI 1640 tissue culture media (Sigma). 100 μl was plated in V-bottomed 96 well tissue culture treated plates. 2 hrs after the addition of the inhibitor in 100 μl of RPMI 1640 media, the blood was stimulated with LPS (E. coli strain 005:B5, Sigma) at a final concentration of 100 ng/ml and incubated at 37° C. in 5% CO2 for 6 hrs. TNF-α levels were measured from cell-free supernatants by sandwich ELISA (R&D Systems #QTA00B)

T1 sequence (Q16539 whole entry): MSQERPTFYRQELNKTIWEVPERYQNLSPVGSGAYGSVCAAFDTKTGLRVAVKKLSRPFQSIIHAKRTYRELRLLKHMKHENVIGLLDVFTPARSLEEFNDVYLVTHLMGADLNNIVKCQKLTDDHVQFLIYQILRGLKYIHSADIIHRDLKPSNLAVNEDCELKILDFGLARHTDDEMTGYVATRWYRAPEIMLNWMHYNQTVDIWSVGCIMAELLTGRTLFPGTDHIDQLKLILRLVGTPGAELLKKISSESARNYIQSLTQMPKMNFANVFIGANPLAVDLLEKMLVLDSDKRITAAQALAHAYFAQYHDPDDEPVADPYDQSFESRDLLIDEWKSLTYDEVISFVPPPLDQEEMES

Row | IC50 (p38 MAP Kinase a) [nM] | IC50 (THP-1 TNFα release) [nM] | IC50 [1] [nM] | SMILES
1 | 100 to 1000 | < 100 | 100 to 1000 | CC(C)C[C@H](NCCc1ccc(-n2c(N)c(C(=O)c3ccc(F)cc3)ccc2=O)cc1)C(=O)OC(C)(C)C [Example 58, tert-Butyl N-[2-(4-{6-amino-5-[(4-fluorophenyl)carbonyl]-2-oxopyridin-1(2H)-yl}phenyl)ethyl]-L-leucinate]
2 | 100 to 1000 | < 100 | 100 to 1000 | CC(C)C[C@H](NCCc1ccc(-n2c(N)c(C(=O)c3ccc(F)cc3F)ccc2=O)cc1)C(=O)OC1CCCC1 [Example 59, Cyclopentyl N-[2-(4-{6-amino-5-[(2,4-difluorophenyl)carbonyl]-2-oxopyridin-1(2H)-yl}phenyl)ethyl]-L-leucinate]
3 | 100 to 1000 | 100 to 1000 | > 1000 | CC(C)C[C@H](NCCCc1ccc(-n2c(N)c(C(=O)c3ccc(F)cc3)ccc2=O)cc1)C(=O)OC1CCCC1 [Example 67, Cyclopentyl N-[3-(4-{6-amino-5-[(4-fluorophenyl)carbonyl]-2-oxopyridin-1(2H)-yl}phenyl)propyl]-L-leucinate]
